Measurements as given in the supplement of paper PMC10307832.

Tests used:
Assay in all cases: relative viability (nuclei count vs DMSO), 5 days (fraction); higher = more cells survive
KN-93 + Crizotinib = compound: CN(C/C=C/C1=CC=C(C=C1)Cl)CC2=CC=CC=C2N(CCO)S(=O)(=O)C3=CC=C(C=C3)OC [KN-93] + C[C@@H](Oc1cc(-c2cnn(C3CCNCC3)c2)cnc1N)c1c(Cl)ccc(F)c1Cl [Crizotinib] (partner 1 µM)
In short: (§1)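 Lung cancer cell lines in 1536-well plates got either a single drug or a fixed anchor-drug dose together with five library-drug doses (not always all listed) in √10 steps, by pin tool, on the day after seeding. Nuclei were counted after 5 days, and relative viability is the treated-to-vehicle ratio of nuclei counts. Values are medians of duplicate plates.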

KN-93 + Olaparib = compound: CN(C/C=C/C1=CC=C(C=C1)Cl)CC2=CC=CC=C2N(CCO)S(=O)(=O)C3=CC=C(C=C3)OC [KN-93] + O=C(c1cc(Cc2n[nH]c(=O)c3ccccc23)ccc1F)N1CCN(C(=O)C2CC2)CC1 [Olaparib] (partner 8 µM)
In short: as §1

KN-93 + Pemetrexed = compound: CN(C/C=C/C1=CC=C(C=C1)Cl)CC2=CC=CC=C2N(CCO)S(=O)(=O)C3=CC=C(C=C3)OC [KN-93] + Nc1nc2[nH]cc(CCc3ccc(C(=O)N[C@@H](CCC(=O)O)C(=O)O)cc3)c2c(=O)[nH]1 [Pemetrexed] (partner 0.2 µM)
In short: as §1

KN-93 + Trametinib = compound: CN(C/C=C/C1=CC=C(C=C1)Cl)CC2=CC=CC=C2N(CCO)S(=O)(=O)C3=CC=C(C=C3)OC [KN-93] + CC(=O)Nc1cccc(-n2c(=O)n(C3CC3)c(=O)c3c(Nc4ccc(I)cc4F)n(C)c(=O)c(C)c32)c1 [Trametinib] (partner 0.02 µM)
In short: as §1

KN-93 + Linsitinib = compound: CN(C/C=C/C1=CC=C(C=C1)Cl)CC2=CC=CC=C2N(CCO)S(=O)(=O)C3=CC=C(C=C3)OC [KN-93] + C[C@]1(O)C[C@@H](c2nc(-c3ccc4ccc(-c5ccccc5)nc4c3)c3c(N)nccn32)C1 [Linsitinib] (partner 1 µM)
In short: as §1

Row | Cell Line | relative viability (KN-93 + Crizotinib; first compound 0.253 µM) | relative viability (KN-93 + Crizotinib; first compound 2.53 µM) | relative viability (KN-93 + Crizotinib; first compound 8 µM) | relative viability (KN-93 + Olaparib; first compound 0.08 µM) | relative viability (KN-93 + Olaparib; first compound 0.253 µM) | relative viability (KN-93 + Olaparib; first compound 2.53 µM) | relative viability (KN-93 + Olaparib; first compound 8 µM) | relative viability (KN-93 + Pemetrexed; first compound 0.08 µM) | relative viability (KN-93 + Pemetrexed; first compound 0.253 µM) | relative viability (KN-93 + Pemetrexed; first compound 2.53 µM) | relative viability (KN-93 + Pemetrexed; first compound 8 µM) | relative viability (KN-93 + Trametinib; first compound 0.08 µM) | relative viability (KN-93 + Trametinib; first compound 0.253 µM) | relative viability (KN-93 + Trametinib; first compound 2.53 µM) | relative viability (KN-93 + Trametinib; first compound 8 µM) | relative viability (KN-93 + Linsitinib; first compound 0.253 µM) | relative viability (KN-93 + Linsitinib; first compound 2.53 µM) | relative viability (KN-93 + Linsitinib; first compound 8 µM) | relative viability (KN-93 + Crizotinib; first compound 0.08 µM) | relative viability (KN-93 + Linsitinib; first compound 0.08 µM)
1 | HCC-366 | 0.609 | 0.68 | 0.129 | 0.298 | 0.318 | 0.422 | 0.2 | 0.157 | 0.175 | 0.189 | 0.133 | 0.258 | 0.305 | 0.336 | 0.162 | 0.706 | 0.844 | 0.334 | – | –
2 | HCC-827 | 0.996 | 0.908 | 0.778 | 0.745 | 0.556 | 0.704 | 0.608 | 0.243 | 0.286 | 0.257 | 0.286 | 0.539 | 0.546 | 0.491 | 0.426 | 0.921 | 0.939 | 0.875 | 0.993 | 1.02
3 | HOP-62 | 1.09 | 1.15 | 0.952 | 0.325 | 0.401 | 0.0964 | 0.545 | 0.28 | 0.383 | 0.346 | 0.322 | 0.358 | 0.378 | 0.375 | 0.276 | 1.15 | 1.12 | 0.982 | 0.936 | 0.938
4 | IA-LM | 0.822 | 0.975 | 0.431 | 1.05 | 0.656 | 0.933 | 0.579 | – | – | – | – | – | – | – | – | 0.495 | 0.463 | 0.827 | 0.745 | 0.608
5 | LC-2-ad | 0.459 | 0.474 | 0.43 | 0.687 | 0.739 | 0.733 | 0.62 | 0.272 | 0.272 | 0.298 | 0.295 | 0.794 | 0.989 | 0.88 | 0.75 | 0.906 | 0.856 | 0.566 | 0.453 | 0.824
6 | LCLC-97TM1 | – | 0.379 | 0.255 | 0.308 | 0.368 | 0.449 | 0.242 | 0.199 | 0.165 | 0.179 | 0.145 | 0.185 | 0.181 | 0.163 | 0.153 | – | 0.2 | 0.142 | 0.321 | 0.162
7 | LCLC-103H | 1.13 | 1.08 | 0.776 | 0.701 | 0.859 | 0.758 | 0.558 | 0.455 | 0.443 | 0.515 | 0.475 | 0.692 | 0.678 | 0.609 | 0.551 | 1.05 | 0.963 | 0.877 | 1.06 | 1.17
8 | LK-2 | 0.199 | 0.216 | 0.27 | 0.79 | 0.643 | 0.89 | 0.582 | 0.275 | 0.273 | 0.288 | 0.2 | 0.715 | 0.867 | 0.929 | 0.78 | 0.609 | 0.634 | 0.479 | 0.214 | 0.605
9 | LOU-NH91 | 0.716 | 0.75 | 0.703 | 0.901 | 0.809 | 0.976 | 0.847 | 0.356 | 0.325 | 0.445 | 0.439 | 0.789 | 0.677 | 0.822 | 0.716 | 0.856 | 0.931 | 0.791 | 0.746 | 0.926
10 | LU99A | 0.703 | 0.566 | 0.504 | 0.257 | 0.271 | 0.244 | 0.264 | 0.183 | 0.183 | 0.189 | 0.222 | 0.603 | 0.626 | 0.496 | 0.431 | 0.541 | 0.497 | 0.461 | 0.529 | 0.535
11 | NCI-H522 | – | – | – | 0.61 | 0.607 | 0.576 | 0.649 | 1.02 | 0.987 | 1.29 | 0.779 | 0.997 | 0.855 | 0.794 | 0.595 | – | – | – | – | –
12 | NCI-H727 | 1 | 0.637 | 0.429 | 0.69 | – | 0.744 | 0.738 | – | – | – | – | 0.32 | – | 0.384 | 0.409 | 0.223 | 0.256 | 0.223 | 0.667 | 0.292
13 | NCI-H1395 | – | – | – | 0.452 | 0.48 | 0.424 | 0.419 | 0.972 | 0.926 | 0.86 | 0.489 | 1.03 | 1.19 | 1.07 | 0.775 | 1.13 | 1.07 | 0.427 | – | 1.66
14 | NCI-H1650 | 1.01 | 1.15 | 0.547 | 0.702 | 0.428 | 0.854 | 0.608 | 0.338 | 0.427 | 0.372 | 0.34 | 0.611 | 0.508 | 0.693 | 0.412 | – | – | – | 0.874 | –
15 | NCI-H1703 | 1.03 | 0.911 | 0.225 | 0.432 | – | 0.372 | 0.181 | – | – | – | – | – | – | – | – | – | 0.976 | 0.389 | 0.677 | 1.14
16 | NCI-H1793 | – | – | – | 0.74 | 0.83 | 0.783 | 0.382 | 0.97 | 0.899 | 1.1 | 0.528 | 0.44 | 0.42 | 0.472 | 0.339 | 1.18 | 0.925 | 0.673 | – | –
17 | NCI-H2170 | 1.66 | 1.42 | 0.931 | 0.531 | 0.679 | 0.679 | 0.419 | 0.268 | 0.302 | 0.276 | 0.252 | 0.796 | 1.16 | 1.02 | 0.834 | – | – | – | 1.13 | –
18 | SW 900 | – | – | – | 1.13 | 0.766 | 1.13 | 0.559 | 0.522 | 0.517 | 0.491 | 0.47 | 0.93 | 0.835 | 1.04 | 0.643 | – | – | – | – | –
